Values of other authors in patent US20250235471A1, “OIL-IN-WATER EMULSION FOR INHALATION ADMINISTRATION COMPRISING CANNABIDIOL(CBD)” (Incannex Healthcare Limited, priority 2021, published 2025).

For `C=C(C)[C@@H]1CCC(C)=C[C@H]1c1c(O)cc(CCCCC)cc1O` [CBD, cannabidiol], the aqueous solubility is listed as less than 10 µg/mL and the “estimated oil/water partition coefficient (Log P)” value (estimated) is listed as 6-7.
